Results taken from patent US12037333B2, “Pyridopyrazine and pyridotriazine inhibitors of influenza virus replication” (priority 2018, dated 2024).

What follows are molecules tested on Influenza type B (cell culture adapted strain B/Lee/40, ATCC VR-1535) (assay: Influenza antiviral assay: inhibition of virus-induced cytopathic effects (CPE) in MDCK cells, XTT dye reduction). Details: Influenza B virus, MDCK, 96 h, strain B/Lee/40, MDCK cells, CPE inhibition at 4 days.
Format: cell-based

Row | SMILES | EC50 [nM]
1 | O=C1c2c(O)c(=O)ccn2N(C23c4ccccc4CC2Cc2c3ccc(F)c2F)CN1CC1CCOCC1 (stereo not drawn) [Compound A15, 1-(1,2-Difluoro-9a,10-dihydro-9H-indeno[1,2-a]inden-4b-yl)-5-hydroxy-3-(tetrahydro-pyran-4-ylmethyl)-2,3-dihydro-1H-pyrido[2,1-f][1,2,4]triazine-4,6-dione] | < 125
2 | O=C1c2c(O)c(=O)ccn2N(C23c4ccccc4CC2Cc2cc(F)c(F)cc23)CN1CC1CCOCC1 (stereo not drawn) [Compound A16, 1-(2,3-Difluoro-9a,10-dihydro-9H-indeno[1,2-a]inden-4b-yl)-5-hydroxy-3-(tetrahydro-pyran-4-ylmethyl)-2,3-dihydro-1H-pyrido[2,1-f][1,2,4]triazine-4,6-dione] | < 125
3 | O=C1c2c(O)c(=O)ccn2N(C23c4ccccc4CC2Cc2c3ccc(F)c2F)CN1Cc1ccc(F)cc1 (stereo not drawn) [Compound A17, 1-(1,2-Difluoro-9a,10-dihydro-9H-indeno[1,2-a]inden-4b-yl)-3-(4-fluoro-benzyl)-5-hydroxy-2,3-dihydro-1H-pyrido[2,1-f][1,2,4]triazine-4,6-dione] | 125 to 250
4 | CN1CN(C23c4ccccc4CC2Cc2cc(F)c(F)cc23)n2ccc(=O)c(O)c2C1=O (stereo not drawn) [Compound A19, 1-(2,3-difluoro-9a,10-dihydroindeno[1,2-a]inden-4b(9H)-yl)-5-hydroxy-3-methyl-2,3-dihydro-1H-pyrido[2,1-f][1,2,4]triazine-4,6-dione] | 250 to 375
5 | O=C1c2c(O)c(=O)ccn2N(C23c4ccccc4CC2Cc2cc(F)c(F)cc23)CN1Cc1ccccc1 (stereo not drawn) [Compound A21, 3-benzyl-1-(2,3-difluoro-9a,10-dihydroindeno[1,2-a]inden-4b(9H)-yl)-5-hydroxy-2,3-dihydro-1H-pyrido[2,1-f][1,2,4]triazine-4,6-dione] | < 125
6 | O=C1c2c(O)c(=O)ccn2N(C23c4ccccc4CC2Cc2cc(F)c(F)cc23)CN1CCc1ccccc1 (stereo not drawn) [Compound A22, 1-(2,3-difluoro-9a,10-dihydroindeno[1,2-a]inden-4b(9H)-yl)-5-hydroxy-3-phenethyl-2,3-dihydro-1H-pyrido[2,1-f][1,2,4]triazine-4,6-dione] | < 125
7 | O=C1c2c(O)c(=O)ccn2N(C23c4ccccc4CC2Cc2cc(F)c(F)cc23)CN1Cc1ccc(F)cc1 (stereo not drawn) [Compound A23, 1-(2,3-Difluoro-9a,10-dihydro-9H-indeno[1,2-a]inden-4b-yl)-3-(4-fluoro-benzyl)-5-hydroxy-2,3-dihydro-1H-pyrido[2,1-f][1,2,4]triazine-4,6-dione] | 250 to 375
8 | O=C1c2c(O)c(=O)ccn2N(C23c4ccccc4CC2Cc2cc(F)c(F)cc23)CN1Cc1cccc(F)c1 (stereo not drawn) [Compound A24, 1-(2,3-difluoro-9a,10-dihydroindeno[1,2-a]inden-4b(9H)-yl)-3-(3-fluorobenzyl)-5-hydroxy-2,3-dihydro-1H-pyrido[2,1-f][1,2,4]triazine-4,6-dione] | 375 to 500
9 | O=C1c2c(O)c(=O)ccn2N(C23c4ccccc4CC2Cc2c3ccc(F)c2F)CN1CCc1ccccc1 (stereo not drawn) [Compound A25, 1-(1,2-difluoro-9a,10-dihydroindeno[1,2-a]inden-4b(9H)-yl)-5-hydroxy-3-phenethyl-2,3-dihydro-1H-pyrido[2,1-f][1,2,4]triazine-4,6-dione] | 375 to 500
10 | O=C1c2c(O)c(=O)ccn2N(C23c4ccccc4CC2Cc2c3ccc(F)c2F)CN1Cc1cccc(F)c1 (stereo not drawn) [Compound A26, 1-(1,2-difluoro-9a,10-dihydroindeno[1,2-a]inden-4b(9H)-yl)-3-(3-fluorobenzyl)-5-hydroxy-2,3-dihydro-1H-pyrido[2,1-f][1,2,4]triazine-4,6-dione] | 250 to 375
11 | O=C1c2c(O)c(=O)ccn2N(C23c4ccccc4CC2Cc2c3ccc(F)c2F)CN1CCc1cccc(F)c1 (stereo not drawn) [Compound A27, 1-(1,2-difluoro-9a,10-dihydroindeno[1,2-a]inden-4b(9H)-yl)-3-(3-fluorophenethyl)-5-hydroxy-2,3-dihydro-1H-pyrido[2,1-f][1,2,4]triazine-4,6-dione] | 250 to 375
12 | O=C1c2c(O)c(=O)ccn2N(C23c4ccccc4CC2Cc2cc(F)c(F)cc23)CN1CCc1cccc(F)c1 (stereo not drawn) [Compound A28, 1-(2,3-difluoro-9a,10-dihydroindeno[1,2-a]inden-4b(9H)-yl)-3-(3-fluorophenethyl)-5-hydroxy-2,3-dihydro-1H-pyrido[2,1-f][1,2,4]triazine-4,6-dione] | 250 to 375
13 | O=C1c2c(O)c(=O)ccn2N(C23c4ccccc4CC2Cc2cc(F)c(F)cc23)CN1CCc1ccc(F)cc1 (stereo not drawn) [Compound A29, 1-(2,3-difluoro-9a,10-dihydroindeno[1,2-a]inden-4b(9H)-yl)-3-(4-fluorophenethyl)-5-hydroxy-2,3-dihydro-1H-pyrido[2,1-f][1,2,4]triazine-4,6-dione] | 250 to 375
14 | CN1CN(C23C(=Cc4ccccc42)Cc2ccccc23)n2ccc(=O)c(O)c2C1=O (stereo not drawn) [Compound A30, 5-hydroxy-1-(indeno[1,2-a]inden-4b(9H)-yl)-3-methyl-2,3-dihydro-1H-pyrido[2,1-f][1,2,4]triazine-4,6-dione] | 375 to 500
15 | O=C1c2c(O)c(=O)ccn2N(C23c4ccccc4CC2Cc2ccccc23)CN1Cc1cccc(Cl)c1F (stereo not drawn) [Compound A31, 3-(3-chloro-2-fluorobenzyl)-1-(9a,10-dihydroindeno[1,2-a]inden-4b(9H)-yl)-5-hydroxy-2,3-dihydro-1H-pyrido[2,1-f][1,2,4]triazine-4,6-dione] | 375 to 500
16 | CN1CN(C23c4ccccc4CC2Cc2c3ccc(F)c2Cl)n2ccc(=O)c(O)c2C1=O (stereo not drawn) [Compound A46, 1-(1-Chloro-2-fluoro-9a,10-dihydroindeno[1,2-a]inden-4b(9H)-yl)-5-hydroxy-3-methyl-2,3-dihydro-1H-pyrido[2,1-f][1,2,4]triazine-4,6-dione] | < 125
17 | CCN1CN(C23c4ccccc4CC2Cc2c3ccc(F)c2Cl)n2ccc(=O)c(O)c2C1=O (stereo not drawn) [Compound A47] | 125 to 250
18 | CCOC12Cc3ccccc3C1(N1CN(CC)C(=O)c3c(O)c(=O)ccn31)c1ccccc1C2 (stereo not drawn) [Compound A48, 1-(9a-Ethoxy-9a,10-dihydroindeno[1,2-a]inden-4b(9H)-yl)-3-ethyl-5-hydroxy-2,3-dihydro-1H-pyrido[2,1-f][1,2,4]triazine-4,6-dione] | < 125
19 | COCCN1CN(C23c4cccc(F)c4CC2Cc2c(F)cccc23)n2ccc(=O)c(O)c2C1=O (stereo not drawn) [Compound A49] | < 125
20 | CC(C)N1CN(C23c4ccccc4CC2(C)Cc2ccccc23)n2ccc(=O)c(O)c2C1=O (stereo not drawn) [Compound A50, 5-hydroxy-3-isopropyl-1-(9a-methyl-9a,10-dihydroindeno[1,2-a]inden-4b(9H)-yl)-2,3-dihydro-1H-pyrido[2,1-f] [1,2,4] triazine-4,6-dione] | < 125

Row | SMILES | EC50 [nM]
21 | CCN1CN(C23c4cccc(F)c4CC2(C)Cc2c(F)cccc23)n2ccc(=O)c(O)c2C1=O (stereo not drawn) [Compound A51] | < 125
22 | CCN1CN(C23c4ccccc4CC2Cc2ccc(F)cc23)n2ccc(=O)c(O)c2C1=O (stereo not drawn) [Compound A52] | < 125
23 | CN1CN(C23c4ccccc4CC2Cc2ccc(F)cc23)n2ccc(=O)c(O)c2C1=O (stereo not drawn) [Compound A53] | < 125
24 | CN1CN(C23c4cccc(F)c4CC2(C)Cc2c(F)cccc23)n2ccc(=O)c(O)c2C1=O (stereo not drawn) [Compound A54] | < 125
25 | CCN1CN(C23c4ccccc4CC2Cc2c(Cl)cccc23)n2ccc(=O)c(O)c2C1=O (stereo not drawn) [Compound A55] | < 125
26 | CCN1CN(C23c4ccccc4CC2(CC)Cc2c3ccc(F)c2F)n2ccc(=O)c(O)c2C1=O (stereo not drawn) [Compound A56] | < 125
27 | CCOC12Cc3ccccc3C1(N1CN(C)C(=O)c3c(O)c(=O)ccn31)c1ccccc1C2 (stereo not drawn) [Compound A57] | < 125
28 | O=C1c2c(O)c(=O)ccn2N(C23c4cccc(F)c4CC2Cc2c(F)cccc23)CN1CCF (stereo not drawn) [Compound A58] | < 125
29 | CN1C(=O)c2c(O)c(=O)ccn2N(C23c4cccc(F)c4CC2Cc2c(F)cccc23)C1CO (stereo not drawn) [Compound A59] | < 125
30 | CC1N(C)C(=O)c2c(O)c(=O)ccn2N1C12c3ccccc3CC1Cc1c(F)cccc12 (stereo not drawn) [Compound A60] | < 125
31 | O=C1c2c(O)c(=O)ccn2N(C23c4ccccc4CC2Cc2c3ccc(F)c2F)CN1C1CC1 (stereo not drawn) [Compound A61] | < 125
32 | COC12Cc3ccccc3C1(N1CN(C)C(=O)c3c(O)c(=O)ccn31)c1ccccc1C2 (stereo not drawn) [Compound A62] | < 125
33 | CN1CN(C23c4ccccc4CC2(C(F)F)Cc2ccccc23)n2ccc(=O)c(O)c2C1=O (stereo not drawn) [Compound A63] | < 125
34 | CC1N(C)C(=O)c2c(O)c(=O)ccn2N1C12c3ccccc3CC1Cc1c2ccc(F)c1F (stereo not drawn) [Compound A64] | < 125
35 | O=C1c2c(O)c(=O)ccn2N(C23c4ccccc4CC2Cc2c(F)cccc23)CN1C1CC1 (stereo not drawn) [Compound A65] | < 125
36 | CCN1CN(C23c4cccc(C)c4CC2Cc2c(F)cccc23)n2ccc(=O)c(O)c2C1=O (stereo not drawn) [Compound A66] | < 125
37 | Cc1cccc2c1CC1Cc3c(F)cccc3C21N1CN(C)C(=O)c2c(O)c(=O)ccn21 (stereo not drawn) [Compound A67] | < 125
38 | O=C1c2c(O)c(=O)ccn2N(C23c4ccccc4CC2Cc2c(F)cccc23)CN1CCF (stereo not drawn) [Compound A68] | < 125
39 | COCCN1CN(C23c4ccccc4CC2Cc2c(F)cccc23)n2ccc(=O)c(O)c2C1=O (stereo not drawn) [Compound A69] | < 125
40 | COCCN1CN(C23c4ccccc4CC2Cc2c3ccc(F)c2F)n2ccc(=O)c(O)c2C1=O (stereo not drawn) [Compound A70] | < 125

Same assay, conditions: strain B/Lee/40, MDCK cells, CPE inhibition at 4 days

Row | SMILES | EC50 [nM]
41 | CC(CCN1CN(C23c4ccccc4CC2Cc2ccccc23)n2ccc(=O)c(O)c2C1=O)c1ccccc1 (stereo not drawn) [Compound A32, 1-(9a,10-dihydroindeno[1,2-a]inden-4b(9H)-yl)-5-hydroxy-3-(3-phenylbutyl)-2,3-dihydro-1H-pyrido[2,1-f][1,2,4]triazine-4,6-dione] | < 125
42 | CC(CCN1CN(C23c4ccccc4CC2Cc2ccccc23)n2ccc(=O)c(O)c2C1=O)c1ccccc1 (stereo not drawn) [Compound A33] | > 500
43 | CCN1CN(C23c4cccc(F)c4CC2Cc2c(F)cccc23)n2ccc(=O)c(O)c2C1=O (stereo not drawn) [Compound A34] | > 500
44 | CCN1CN(C23c4cccc(F)c4CC2Cc2c(F)cccc23)n2ccc(=O)c(O)c2C1=O (stereo not drawn) [Compound A43] | < 125
45 | CCN1CN(C23c4ccccc4CC2Cc2c3ccc(F)c2F)n2ccc(=O)c(O)c2C1=O (stereo not drawn) [Compound A45] | < 125
